# Data reported in US20250223276A1, “Substituted Pyrrolidinyl And Piperidinyl Compounds And Related Methods Of Treatment” (Alkermes, Inc., priority 2022, published 2025).
# Target: T1, human orexin-2 receptor (OX2R) (Homo sapiens, UniProt O43614)
# T1 construct: expressed in transfected cells
# T1 sequence (O43614 1-444): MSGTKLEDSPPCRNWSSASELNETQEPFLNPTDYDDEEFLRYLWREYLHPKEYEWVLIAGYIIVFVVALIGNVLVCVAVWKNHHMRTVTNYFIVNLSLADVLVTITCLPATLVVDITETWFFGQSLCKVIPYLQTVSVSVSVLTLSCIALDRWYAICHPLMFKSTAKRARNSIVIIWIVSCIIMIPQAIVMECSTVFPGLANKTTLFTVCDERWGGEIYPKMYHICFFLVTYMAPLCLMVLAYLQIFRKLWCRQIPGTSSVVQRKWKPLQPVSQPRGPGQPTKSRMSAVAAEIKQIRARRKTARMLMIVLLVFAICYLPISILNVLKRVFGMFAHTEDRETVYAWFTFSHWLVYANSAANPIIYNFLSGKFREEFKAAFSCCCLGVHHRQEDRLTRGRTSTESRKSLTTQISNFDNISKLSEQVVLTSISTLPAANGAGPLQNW
# Experiment: Human OX2R IP1 assay
# Assay type: cell-based
# Details: T-Rex CHO cells stably overexpressing human OX2R; IP1 (inositol monophosphate) accumulation, HTRF; 1 hr at 37 degrees C
# Experimental: T-Rex CHO cells stably overexpressing the human orexin-2 receptor (OX2R) are induced overnight with 1 μg/mL of doxycycline in a T225 flask. 24 hours post induction, cells are lifted with accutase and plated into a 384-well proxy plate at 30,000 cells/well. Cells are then treated with different test compounds in 1× stimulation buffer containing 10 mM Hepes, 1 mM CaCl2), 0.5 mM MgCl2, 4.2 mM KCl, 146 mM NaCl, 5.5 mM glucose, and 50 mM LiCl, pH 7.4, for 1 hr at 37 degrees C. Following incubation, the reaction is terminated by the addition of detection mix, which is composed of IP1-d2 and anti-IP1-cryptate diluted in lysis buffer as well as 1× stimulation buffer. The plates are allowed to incubate for 1 hour at room temperature and are then read in the En Vision® multimode plate reader, measuring inositol phosphate levels.
# Cisbio IP1 is a cell-based functional assay quantifying the accumulation of inositol monophosphate (IP), a metabolite released as a result of orexin 2 receptor activation through the phospholipase C-Gq signaling pathway. This is a competitive immunoassay in which the IP1 produced by the cells upon receptor activation competes with the IP1 analog coupled to the d2 fluorophore (acceptor) for binding to an anti-IP1 monoclonal antibody labeled with Eu cryptate (donor). The measured HTRF-FRET based signal is inversely proportional to the IP1 concentration produced.
# The EC50 values reported in Table 2 were obtained according to the human OX2R IP1 assay described above. Data are the mean EC50 values±S.E.M.
row,SMILES,EC50 [nM]
1,CC(C)S(=O)(=O)N[C@H]1CCN(c2cccnn2)C[C@H]1CO[C@H]1CC[C@@H](c2cccc(F)c2)CC1 [Compound 21],< 100
2,O=S(=O)(N[C@H]1CCN(c2cccnn2)C[C@H]1CO[C@H]1CC[C@@H](c2cccc(F)c2)CC1)N1CC(C(F)F)C1 [Compound 25],> 1000
3,O=S(=O)(N[C@H]1CCN(c2cccnn2)C[C@H]1CO[C@H]1CC[C@@H](c2cccc(F)c2)CC1)N1CC(CF)C1 [Compound 28],> 1000
4,O=S(=O)(N[C@H]1CCN(c2cccnn2)C[C@H]1CO[C@H]1CC[C@@H](c2cccc(F)c2)CC1)C1CC1 [Compound 10],< 100
5,O=S(=O)(N[C@H]1CCN(c2cccnn2)C[C@H]1CO[C@H]1CC[C@@H](c2cccc(F)c2)CC1)N1CC2(COC2)C1 [Compound 34],> 1000
6,O=S(=O)(N[C@H]1CCN(c2cccnn2)C[C@H]1CO[C@H]1CC[C@@H](c2cccc(F)c2)CC1)N1CCC(F)(F)C1 [Compound 29],> 1000
7,O=S(=O)(N[C@H]1CCN(c2cccnn2)C[C@H]1CO[C@H]1CC[C@@H](c2cccc(F)c2)CC1)N1CCCC1 [Compound 26],> 1000
8,O=C(NC1CCN(c2cccnn2)CC1CO[C@H]1CC[C@@H](c2cccc(F)c2)CC1)C(F)(F)F (stereo partly shown) [Compound 67],> 1000
9,COCCN(C)S(=O)(=O)N[C@H]1CCN(c2cccnn2)C[C@H]1CO[C@H]1CC[C@@H](c2cccc(F)c2)CC1 [Compound 63],> 1000
10,CN1CC2(C1)CN(S(=O)(=O)N[C@H]1CCN(c3cccnn3)C[C@H]1CO[C@H]1CC[C@@H](c3cccc(F)c3)CC1)C2 [Compound 27],> 1000
11,O=S(=O)(N[C@H]1CCN(c2cccnn2)C[C@H]1CO[C@H]1CC[C@@H](c2cccc(F)c2)CC1)N1CC(Cl)C1 [Compound 31],> 1000
12,CN1CCN(S(=O)(=O)N[C@H]2CCN(c3cccnn3)C[C@H]2CO[C@H]2CC[C@@H](c3cccc(F)c3)CC2)CC1 [Compound 24],> 1000
13,CCN(CC)S(=O)(=O)N[C@H]1CCN(c2cccnn2)C[C@H]1CO[C@H]1CC[C@@H](c2cccc(F)c2)CC1 [Compound 14],> 1000
14,O=S(=O)(N[C@H]1CCN(c2cccnn2)C[C@H]1CO[C@H]1CC[C@@H](c2cccc(F)c2)CC1)N1CC(C(F)(F)F)C1 [Compound 22],> 1000
15,CC(C)N(C)[C@@H]1CCN(S(=O)(=O)N[C@H]2CCN(c3cccnn3)C[C@H]2CO[C@H]2CC[C@@H](c3cccc(F)c3)CC2)C1 [Compound 57],> 1000
16,CCS(=O)(=O)N[C@H]1CCN(c2cccnn2)C[C@H]1CO[C@H]1CC[C@@H](c2cccc(F)c2)CC1 [Compound 19],< 100
17,CC(C)N(C)[C@H]1CCN(S(=O)(=O)N[C@H]2CCN(c3cccnn3)C[C@H]2CO[C@H]2CC[C@@H](c3cccc(F)c3)CC2)C1 [Compound 56],> 1000
18,CNS(=O)(=O)N[C@H]1CCN(c2cccnn2)C[C@H]1CO[C@H]1CC[C@@H](c2cccc(F)c2)CC1 [Compound 3],< 100
19,O=S(=O)(N[C@H]1CCN(c2cccnn2)C[C@H]1CO[C@H]1CC[C@@H](c2cccc(F)c2)CC1)N1CCOCC1 [Compound 15],> 1000
20,O=S(=O)(N[C@H]1CCN(c2cccnn2)C[C@H]1CO[C@H]1CC[C@@H](c2cccc(F)c2)CC1)C1CCC1 [Compound 20],> 1000
21,CN1CC(NS(=O)(=O)N[C@H]2CCN(c3cccnn3)C[C@H]2CO[C@H]2CC[C@@H](c3cccc(F)c3)CC2)C1 [Compound 33],> 1000
22,O=S(=O)(N[C@H]1CCN(c2cccnn2)C[C@H]1CO[C@H]1CC[C@@H](c2cccc(F)c2)CC1)C(F)F [Compound 11],< 100
23,O=S(=O)(N[C@H]1CCN(c2cccnn2)C[C@H]1CO[C@H]1CC[C@@H](c2cccc(F)c2)CC1)N1CCC1 [Compound 8],100 to 1000
24,O=S(=O)(NC1CC1)N[C@H]1CCN(c2cccnn2)C[C@H]1CO[C@H]1CC[C@@H](c2cccc(F)c2)CC1 [Compound 17],100 to 1000

# Other lines, results leading:
row,EC50 [nM],SMILES
1,> 1000,COC(=O)N1CC[C@H](NS(=O)(=O)N(C)C)[C@H](CO[C@H]2CC[C@@H](c3cccc(F)c3)CC2)C1 [Compound 16]
2,< 100,CN(C)S(=O)(=O)N[C@H]1CCN(C(=O)N2CC(F)(F)C2)C[C@H]1CO[C@H]1CC[C@@H](c2cccc(F)c2)CC1 [Compound 62]
3,> 1000,CN(CCF)S(=O)(=O)N[C@H]1CCN(c2cccnn2)C[C@H]1CO[C@H]1CC[C@@H](c2cccc(F)c2)CC1 [Compound 64]
4,< 100,CN(C)S(=O)(=O)N[C@H]1CCN(C(=O)[C@H]2C[C@@H](F)C2)C[C@H]1CO[C@H]1CC[C@@H](c2cccc(F)c2)CC1 [Compound 53]
5,> 1000,CN(C)S(=O)(=O)N[C@H]1CCN(C(=O)OCC2(F)CC2)C[C@H]1CO[C@H]1CC[C@@H](c2cccc(F)c2)CC1 [Compound 58]
6,< 100,CN(C)S(=O)(=O)N[C@H]1CCN(C(=O)C2(F)CCC2)C[C@H]1CO[C@H]1CC[C@@H](c2cccc(F)c2)CC1 [Compound 4]
7,< 100,CN(C)S(=O)(=O)N[C@H]1CCN(C(=O)OCC(F)F)C[C@H]1CO[C@H]1CC[C@@H](c2cccc(F)c2)CC1 [Compound 48]
8,100 to 1000,O=S(=O)(N[C@H]1CCN(c2cccnn2)C[C@H]1CO[C@H]1CC[C@@H](c2cccc(F)c2)CC1)N1CC(F)C1 [Compound 18]
9,< 100,CN(C)S(=O)(=O)N[C@H]1CCN(C(=O)N2CCOCC2)C[C@H]1CO[C@H]1CC[C@@H](c2cccc(F)c2)CC1 [Compound 55]
10,> 1000,CN(C)C1CN(S(=O)(=O)N[C@H]2CCN(c3cccnn3)C[C@H]2CO[C@H]2CC[C@@H](c3cccc(F)c3)CC2)C1 [Compound 30]
11,< 100,CN(C)S(=O)(=O)N[C@H]1CCN(C(=O)[C@@H]2CCOC2)C[C@H]1CO[C@H]1CC[C@@H](c2cccc(F)c2)CC1 [Compound 5]
12,100 to 1000,CN(C)S(=O)(=O)N[C@H]1CCN(C(=O)c2cncn2C)C[C@H]1CO[C@H]1CC[C@@H](c2cccc(F)c2)CC1 [Compound 46]
13,< 100,CS(=O)(=O)N[C@H]1CCN(C(=O)[C@H]2CCOC2)C[C@H]1CO[C@H]1CC[C@@H](c2cccc(F)c2)CC1 [Compound 7]
14,< 100,CN(C)S(=O)(=O)N[C@H]1CCN(C(=O)C2(F)CC2)C[C@H]1CO[C@H]1CC[C@@H](c2cccc(F)c2)CC1 [Compound 47]
15,> 1000,CN(C)S(=O)(=O)N[C@H]1CCN(C(=O)C2CNC(=O)C2)C[C@H]1CO[C@H]1CC[C@@H](c2cccc(F)c2)CC1 (stereo partly shown) [Compound 52]
16,< 100,CN(C)S(=O)(=O)N[C@H]1CCN(c2cccnn2)C[C@H]1CO[C@H]1CC[C@@H](c2cccc(F)c2)CC1 [Compound 2]
17,< 100,CS(=O)(=O)N[C@H]1CCN(C(=O)C2(F)CCC2)C[C@H]1CO[C@H]1CC[C@@H](c2cccc(F)c2)CC1 [Compound 6]
18,< 100,CN(C)S(=O)(=O)N[C@H]1CCN(C(=O)N2CCC(F)(F)C2)C[C@H]1CO[C@H]1CC[C@@H](c2cccc(F)c2)CC1 [Compound 61]
19,> 1000,CN(C)S(=O)(=O)N[C@H]1CCN(C(=O)OC2CC2)C[C@H]1CO[C@H]1CC[C@@H](c2cccc(F)c2)CC1 [Compound 60]
20,> 1000,CN(C)S(=O)(=O)N[C@H]1CCN(C(=O)C2CCC(F)(F)C2)C[C@H]1CO[C@H]1CC[C@@H](c2cccc(F)c2)CC1 (stereo partly shown) [Compound 13]
21,> 1000,CN1CC(OC(=O)N2CC[C@H](NS(=O)(=O)N(C)C)[C@H](CO[C@H]3CC[C@@H](c4cccc(F)c4)CC3)C2)C1 [Compound 59]
22,100 to 1000,CN(C1CC1)S(=O)(=O)N[C@H]1CCN(c2cccnn2)C[C@H]1CO[C@H]1CC[C@@H](c2cccc(F)c2)CC1 [Compound 9]
23,> 1000,CN(C)S(=O)(=O)N[C@H]1CCN(C(=O)c2ccnn2C)C[C@H]1CO[C@H]1CC[C@@H](c2cccc(F)c2)CC1 [Compound 49]
24,< 100,CN(C)S(=O)(=O)N[C@H]1CCN(C(=O)c2cncs2)C[C@H]1CO[C@H]1CC[C@@H](c2cccc(F)c2)CC1 [Compound 45]
25,< 100,CN(C)S(=O)(=O)N[C@H]1CCN(C(=O)[C@H]2C[C@H](F)C2)C[C@H]1CO[C@H]1CC[C@@H](c2cccc(F)c2)CC1 [Compound 54]
26,100 to 1000,C[C@@H](OC(=O)N1CC[C@H](NS(=O)(=O)N(C)C)[C@H](CO[C@H]2CC[C@@H](c3cccc(F)c3)CC2)C1)C(F)F [Compound 65]
27,< 100,CN(C)S(=O)(=O)N[C@H]1CCN(C(=O)c2cnco2)C[C@H]1CO[C@H]1CC[C@@H](c2cccc(F)c2)CC1 [Compound 44]
28,100 to 1000,CC(C)OC(=O)N1CC[C@H](NS(=O)(=O)N(C)C)[C@H](CO[C@H]2CC[C@@H](c3cccc(F)c3)CC2)C1 [Compound 50]
